Source: publication PMC3108484 (Frontiers in Pharmacology, 2011)

Assays:
conscious guinea pigs = assay: Guinea pig colonic transit of carmine red dye; format: in vivo; settings: s.c., maximum effect already achieved
[1] = tested on: canine antrum, duodenum, and jejunum; assay: Dog gastrointestinal contractility; format: in vivo; settings: oral, conscious fasted dogs
Human D1 = Human D1 (Homo sapiens, UniProt P21728); assay: Radioligand binding: Human D1
Human D5 = Human D5 (Homo sapiens, UniProt P21918); assay: Radioligand binding: Human D5
Human β1 = Human β1 (Homo sapiens, UniProt P08588); assay: Radioligand binding: Human β1
Rat CRF1 = Rat CRF1 (Rattus norvegicus, UniProt P35353); assay: Radioligand binding: Rat CRF1
Sequence of Rat CRF1 (P35353 24-415): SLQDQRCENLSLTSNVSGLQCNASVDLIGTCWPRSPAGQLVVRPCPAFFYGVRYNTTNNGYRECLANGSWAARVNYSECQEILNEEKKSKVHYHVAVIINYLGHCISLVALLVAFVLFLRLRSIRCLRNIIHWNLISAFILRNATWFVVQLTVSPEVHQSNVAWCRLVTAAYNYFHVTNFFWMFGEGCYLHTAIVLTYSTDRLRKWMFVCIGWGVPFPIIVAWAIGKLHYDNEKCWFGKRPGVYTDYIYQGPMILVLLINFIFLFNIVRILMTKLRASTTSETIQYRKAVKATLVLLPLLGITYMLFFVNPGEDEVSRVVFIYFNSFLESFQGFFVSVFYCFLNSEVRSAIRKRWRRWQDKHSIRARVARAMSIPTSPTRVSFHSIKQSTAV

Human A2A = Human A2A (Homo sapiens, UniProt P29274); assay: Radioligand binding: Human A2A
Human ETA = Human ETA (Homo sapiens, UniProt P25101); assay: Radioligand binding: Human ETA
Human ETB = Human ETB (Homo sapiens, UniProt P24530); assay: Radioligand binding: Human ETB
Sequence of Human ETB (P24530 27-442): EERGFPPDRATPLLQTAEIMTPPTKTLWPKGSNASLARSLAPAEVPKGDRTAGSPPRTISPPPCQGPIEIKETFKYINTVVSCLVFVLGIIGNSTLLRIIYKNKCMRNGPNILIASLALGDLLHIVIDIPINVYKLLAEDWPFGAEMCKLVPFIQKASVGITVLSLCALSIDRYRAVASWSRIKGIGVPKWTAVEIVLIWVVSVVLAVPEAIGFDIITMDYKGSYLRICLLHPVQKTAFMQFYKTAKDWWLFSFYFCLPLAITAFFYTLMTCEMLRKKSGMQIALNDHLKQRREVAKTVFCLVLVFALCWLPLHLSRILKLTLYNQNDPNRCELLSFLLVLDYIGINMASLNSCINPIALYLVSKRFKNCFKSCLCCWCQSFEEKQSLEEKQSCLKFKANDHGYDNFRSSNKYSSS

Human NK1 = Human NK1 (Homo sapiens, UniProt P25103); assay: Radioligand binding: Human NK1
Sequence of Human NK1 (P25103 whole entry): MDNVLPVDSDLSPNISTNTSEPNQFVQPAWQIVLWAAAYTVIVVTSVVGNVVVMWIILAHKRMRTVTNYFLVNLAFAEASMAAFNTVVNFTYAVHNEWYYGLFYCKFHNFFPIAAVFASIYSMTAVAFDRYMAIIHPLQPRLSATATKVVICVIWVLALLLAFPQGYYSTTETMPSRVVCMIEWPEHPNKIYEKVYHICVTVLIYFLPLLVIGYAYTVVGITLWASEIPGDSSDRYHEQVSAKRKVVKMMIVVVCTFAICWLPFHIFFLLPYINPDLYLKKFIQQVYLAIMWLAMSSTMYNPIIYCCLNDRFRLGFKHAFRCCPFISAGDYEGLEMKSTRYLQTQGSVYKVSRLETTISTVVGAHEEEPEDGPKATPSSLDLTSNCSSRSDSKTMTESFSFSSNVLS

Human NK2 = Human NK2 (Homo sapiens, UniProt P21452); assay: Radioligand binding: Human NK2
Human V1a = Human V1a (Homo sapiens, UniProt P37288); assay: Radioligand binding: Human V1a
Sequence of Human V1a (P37288 whole entry): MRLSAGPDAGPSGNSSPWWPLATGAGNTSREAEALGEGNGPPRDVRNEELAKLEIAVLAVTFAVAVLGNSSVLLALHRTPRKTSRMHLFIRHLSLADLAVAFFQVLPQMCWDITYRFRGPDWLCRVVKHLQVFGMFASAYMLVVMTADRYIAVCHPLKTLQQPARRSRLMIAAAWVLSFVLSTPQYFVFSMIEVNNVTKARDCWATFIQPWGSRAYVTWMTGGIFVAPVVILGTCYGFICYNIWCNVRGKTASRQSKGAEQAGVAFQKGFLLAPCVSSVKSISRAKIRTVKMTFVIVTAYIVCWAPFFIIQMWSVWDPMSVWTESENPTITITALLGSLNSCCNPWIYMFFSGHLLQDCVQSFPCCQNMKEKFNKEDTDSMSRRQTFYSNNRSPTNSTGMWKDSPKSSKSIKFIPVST

Human CB1 = Human CB1 (Homo sapiens, UniProt P21554); assay: Radioligand binding: Human CB1
Human 5-HT7 = Human 5-HT7 (Homo sapiens, UniProt P34969); assay: Radioligand binding: Human 5-HT7
Rat kainate = assay: Radioligand binding: Rat kainate; settings: [3H]-kainic acid 5 nM
Human 5-HT1A = Human 5-HT1A (Homo sapiens, UniProt P08908); assay: Radioligand binding: Human 5-HT1A
Human motilin = Human motilin (Homo sapiens, UniProt O43193); assay: Radioligand binding: Human motilin
[2] = biological target: Rat α4β2 nAChR (α-BGTX-insensitive) (Rattus norvegicus, UniProt P09483+P12390); assay: Radioligand binding: Rat α4β2 nAChR
Sequence of Rat α4β2 nAChR (α-BGTX-insensitive) (P09483 31-630): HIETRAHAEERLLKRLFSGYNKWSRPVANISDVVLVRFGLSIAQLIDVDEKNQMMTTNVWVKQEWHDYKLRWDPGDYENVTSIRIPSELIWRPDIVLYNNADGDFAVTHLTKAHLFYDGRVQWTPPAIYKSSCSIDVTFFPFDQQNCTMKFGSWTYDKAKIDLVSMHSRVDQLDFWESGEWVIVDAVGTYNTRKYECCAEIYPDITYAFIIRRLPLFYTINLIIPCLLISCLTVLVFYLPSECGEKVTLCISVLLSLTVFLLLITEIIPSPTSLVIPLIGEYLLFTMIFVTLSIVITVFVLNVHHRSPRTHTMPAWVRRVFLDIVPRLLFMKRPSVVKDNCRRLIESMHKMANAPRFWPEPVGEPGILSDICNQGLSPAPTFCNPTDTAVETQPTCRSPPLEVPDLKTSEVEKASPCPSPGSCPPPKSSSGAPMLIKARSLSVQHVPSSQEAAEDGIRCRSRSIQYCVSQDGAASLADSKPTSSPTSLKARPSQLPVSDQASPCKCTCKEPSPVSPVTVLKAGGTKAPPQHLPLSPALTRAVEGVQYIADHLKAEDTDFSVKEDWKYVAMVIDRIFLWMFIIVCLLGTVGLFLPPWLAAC
Sequence of Rat α4β2 nAChR (α-BGTX-insensitive) (P12390 25-500): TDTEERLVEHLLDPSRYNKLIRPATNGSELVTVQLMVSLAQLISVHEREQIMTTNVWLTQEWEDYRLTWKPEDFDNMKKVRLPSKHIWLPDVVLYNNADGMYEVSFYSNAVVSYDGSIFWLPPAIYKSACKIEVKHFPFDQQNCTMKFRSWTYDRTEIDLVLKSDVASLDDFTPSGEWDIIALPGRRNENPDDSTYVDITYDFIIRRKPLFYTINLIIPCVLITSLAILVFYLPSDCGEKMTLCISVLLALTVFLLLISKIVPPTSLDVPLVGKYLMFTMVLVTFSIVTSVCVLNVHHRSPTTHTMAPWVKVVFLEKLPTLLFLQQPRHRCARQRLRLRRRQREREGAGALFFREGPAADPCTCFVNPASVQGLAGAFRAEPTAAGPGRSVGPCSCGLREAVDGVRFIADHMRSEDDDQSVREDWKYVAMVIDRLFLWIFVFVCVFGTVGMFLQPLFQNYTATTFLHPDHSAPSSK

Rat PACAP (PAC1) = Rat PACAP (PAC1) (Rattus norvegicus, UniProt P32215); assay: Radioligand binding: Rat PACAP
Sequence of Rat PACAP (PAC1) (P32215 20-523): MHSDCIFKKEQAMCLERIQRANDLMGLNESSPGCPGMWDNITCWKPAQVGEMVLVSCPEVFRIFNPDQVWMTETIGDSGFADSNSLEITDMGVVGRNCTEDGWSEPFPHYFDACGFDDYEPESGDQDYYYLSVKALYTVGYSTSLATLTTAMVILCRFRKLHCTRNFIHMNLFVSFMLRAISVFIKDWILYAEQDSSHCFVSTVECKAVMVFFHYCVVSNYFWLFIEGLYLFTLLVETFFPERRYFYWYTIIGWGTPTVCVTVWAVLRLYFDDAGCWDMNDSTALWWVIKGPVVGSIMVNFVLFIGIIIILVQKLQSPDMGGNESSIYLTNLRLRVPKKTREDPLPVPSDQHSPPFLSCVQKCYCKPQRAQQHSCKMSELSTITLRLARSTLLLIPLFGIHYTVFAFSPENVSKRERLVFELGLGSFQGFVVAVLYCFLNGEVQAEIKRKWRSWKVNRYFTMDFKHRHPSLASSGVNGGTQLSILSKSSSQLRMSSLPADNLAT

Human CCK1 (CCKA) = Human CCK1 (CCKA) (Homo sapiens, UniProt P32238); assay: Radioligand binding: Human CCK1
Human CCK2 (CCKB) = Human CCK2 (CCKB) (Homo sapiens, UniProt P32239); assay: Radioligand binding: Human CCK2
Sequence of Human CCK2 (CCKB) (P32239 whole entry): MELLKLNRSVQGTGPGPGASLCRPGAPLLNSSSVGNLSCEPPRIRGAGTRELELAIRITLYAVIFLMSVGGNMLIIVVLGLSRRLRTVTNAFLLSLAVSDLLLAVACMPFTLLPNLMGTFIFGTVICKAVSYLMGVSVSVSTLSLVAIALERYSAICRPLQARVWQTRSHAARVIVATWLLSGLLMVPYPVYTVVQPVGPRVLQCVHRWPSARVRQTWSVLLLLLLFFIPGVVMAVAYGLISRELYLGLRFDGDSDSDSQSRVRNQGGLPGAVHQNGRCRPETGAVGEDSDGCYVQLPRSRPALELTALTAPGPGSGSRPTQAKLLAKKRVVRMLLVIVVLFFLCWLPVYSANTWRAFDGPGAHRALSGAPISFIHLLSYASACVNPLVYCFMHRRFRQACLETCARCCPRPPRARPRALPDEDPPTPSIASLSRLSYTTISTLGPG

Human VPAC1 (VIP1) = Human VPAC1 (VIP1) (Homo sapiens, UniProt P32241); assay: Radioligand binding: Human VPAC1
Rat adenylyl cyclase = assay: Enzyme inhibition: Rat adenylyl cyclase; settings: ATP 500 μM, TD-8954 1 μM
Rat σ (non-selective) = assay: Radioligand binding: Rat σ; settings: [3H]-DTG 8 nM
Rat BB (non-selective) = assay: Radioligand binding: Rat BB; settings: [125I]-[Tyr4]-bombesin 0.01 nM
Human 5-HT transporter = Human 5-HT transporter (Homo sapiens, UniProt P31645); assay: Radioligand binding: Human 5-HT transporter
Human μ = Human μ (Homo sapiens, UniProt P35372); assay: Radioligand binding: Human μ opiate receptor
Human δ2 = Human δ2 (Homo sapiens, UniProt P41143); assay: Radioligand binding: Human δ2 opiate receptor
[3] = biological target: Human acetylcholinesterase (Homo sapiens, UniProt P22303); assay: Enzyme inhibition: Human acetylcholinesterase
Sequence of Human acetylcholinesterase (P22303 32-614): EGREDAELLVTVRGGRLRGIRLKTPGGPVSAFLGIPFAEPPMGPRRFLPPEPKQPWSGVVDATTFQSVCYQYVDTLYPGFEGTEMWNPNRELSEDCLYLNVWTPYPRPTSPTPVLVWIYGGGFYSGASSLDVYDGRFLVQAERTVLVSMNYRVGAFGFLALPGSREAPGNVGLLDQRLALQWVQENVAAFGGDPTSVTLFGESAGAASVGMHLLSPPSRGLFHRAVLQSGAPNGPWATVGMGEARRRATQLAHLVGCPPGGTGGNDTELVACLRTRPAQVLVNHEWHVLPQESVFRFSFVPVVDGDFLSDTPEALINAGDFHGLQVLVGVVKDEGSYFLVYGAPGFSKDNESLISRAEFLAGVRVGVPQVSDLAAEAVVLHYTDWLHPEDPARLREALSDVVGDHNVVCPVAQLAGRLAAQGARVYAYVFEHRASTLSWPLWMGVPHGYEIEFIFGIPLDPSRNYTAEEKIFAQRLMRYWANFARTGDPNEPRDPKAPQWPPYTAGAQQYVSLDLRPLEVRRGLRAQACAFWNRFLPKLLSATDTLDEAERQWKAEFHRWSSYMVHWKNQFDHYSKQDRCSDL

[4] = biological target: Rat galanin (non-selective); assay: Radioligand binding: Rat galanin; settings: [125I]-galanin 0.05 nM
[5] = biological target: Human norepinephrine transporter (Homo sapiens, UniProt P23975); assay: Radioligand binding: Human norepinephrine transporter
[6] = biological target: Rat Ca2+ channel (L, diltiazem site); assay: Radioligand binding: Rat Ca2+ channel; settings: [3H]-diltiazem 5 nM
[7] = biological target: Rat Ca2+ channel (L, verapamil site); assay: Radioligand binding: Rat Ca2+ channel; settings: [3H]-(−)D 888 0.5 nM
[8] = read-out: % Inhibition of specific binding (1 μM)

Sequence of Human D1 (P21728 whole entry): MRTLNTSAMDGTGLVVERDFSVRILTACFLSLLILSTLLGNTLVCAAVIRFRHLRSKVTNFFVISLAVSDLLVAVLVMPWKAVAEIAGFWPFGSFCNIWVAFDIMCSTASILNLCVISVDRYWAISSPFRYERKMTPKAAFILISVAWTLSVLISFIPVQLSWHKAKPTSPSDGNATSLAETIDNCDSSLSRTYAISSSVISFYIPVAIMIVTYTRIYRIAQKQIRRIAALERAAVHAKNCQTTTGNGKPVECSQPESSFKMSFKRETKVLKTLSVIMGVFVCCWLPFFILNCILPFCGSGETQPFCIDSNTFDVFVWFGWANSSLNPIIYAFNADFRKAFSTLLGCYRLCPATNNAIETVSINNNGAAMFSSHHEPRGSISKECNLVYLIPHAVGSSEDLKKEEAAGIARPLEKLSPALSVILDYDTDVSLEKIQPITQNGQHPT

COC(=O)N1CCC(CN2CCC(CNC(=O)c3cccc4[nH]c(C(C)C)nc34)CC2)CC1 [TD-8954, 4-(4-{[(2-isopropyl-1H-benzoimidazole-4-carbonyl)amino]methyl}-piperidin-1-ylmethyl)piperidine-1-carboxylic acid methyl ester]
5%: inhibition at 1 µM (Human ETB; [8]) | % Inhibition of control (1 μM) (Rat adenylyl cyclase)
> 1000 nM: Ki (Human D1) | Ki (Human D5) | Ki (Human β1) | Ki (Rat CRF1) | Ki (Human A2A) | Ki (Human ETA) | Ki (Human ETB) | Ki (Human NK1) | Ki (Human NK2) | Ki (Human V1a) | Ki (Human CB1) | Ki (Human 5-HT7) | Ki (Human 5-HT1A) | Ki (Human motilin) | Ki [2] | Ki (Rat PACAP (PAC1)) | Ki (Human CCK1 (CCKA)) | Ki (Human CCK2 (CCKB)) | Ki (Human VPAC1 (VIP1)) | Ki (Human 5-HT transporter) | Ki (Human μ) | Ki (Human δ2) | IC50 [3] | Ki [5]
1%: inhibition at 1 µM (Human V1a; [8]) | % Inhibition of specific binding (1 μM) ([4]; TD-8954 1 μM)
4%: % Inhibition of specific binding (1 μM) (Rat BB (non-selective); TD-8954 1 μM)
≤ 10 min: onset of contractile activity after dosing [1]
6%: inhibition at 1 µM [5, 8]
16%: % Inhibition of specific binding (1 μM) (Human A2A; Human A2A, [3H]-CGS 21680 6 nM, TD-8954 1 μM)
−6%: % Inhibition of specific binding (1 μM) (Rat kainate; TD-8954 1 μM)
-2%: inhibition at 1 µM (Human D1; [8]) | inhibition at 1 µM (Human NK1; [8]) | inhibition at 1 µM [2, 8]
increases in contractility: effect on contractility in the antrum, duodenum, and jejunum ([1]; TD-8954 0.01 and 0.03 mg/kg, tegaserod 0.1 and 0.3 mg/kg)
2%: inhibition at 1 µM (Human VPAC1 (VIP1); [8]) | inhibition at 1 µM ([3]; read-out: % Inhibition of control (1 μM))
-1%: inhibition at 1 µM (Human CCK2 (CCKB); [8])
<6: pKi (Rat kainate) | pKi (Rat σ (non-selective)) | pKi (Rat BB (non-selective)) | pKi [4] | pKi [6] | pKi [7]
-3%: inhibition at 1 µM (Rat PACAP (PAC1); [8])
0.03 mg/kg: lowest dose tested, significantly active on colonic transit (conscious guinea pigs)
-6%: inhibition at 1 µM (Rat CRF1; [8])
